From US20200292529A1, “NEW DRUG SCREENING ASSAY USING REGULATORY MACROPHAGES” (Universität Regensburg, priority 2017, published 2020)
“Also recorded” adds a separate entry of the source.

B1: IFN-γ: recombinant human interferon gamma added to Mreg-T cell co-cultures (protein, UniProt P01579 24-161, looked up)
Interferon gamma: QDPYVKEAENLKKYFNAGHSDVADNGTLFLGILKNWKEESDRKIMQSQIVSFYFKLFKNFKDDQSIQKSVETIKEDMNVKFFNSNKKKRDDFEKLTNYSVTDLNVQRKAIHELIQVMAELSPAAKTGKRKRSQMLFRG

Tests used:
Foxp3+CD25+ iTreg cells [1] = assay: Mreg co-culture with naïve CD4+ T cells in lidded FACS tubes, iTreg analysis by flow cytometry; type: cell-based, human; settings: tacrolimus 1 nM to 10 μM during co-culture; n=3 donors; FIG. 1
Method: (§1) A preparation of human Mregs (“Mreg B”) was prepared in 75 cm^2 flasks according to a modified protocol of Hutchinson. Peripheral blood mononuclear cells (PBMC) were obtained from a healthy donor for use as starting material for Mreg generation. The donor was screened for relevant disease markers, including infectious diseases, not more than 30 days prior to collection of PBMC. The donor was re-screened for the same disease markers on the day of leucocyte donation. PBMC were obtained by leukapheresis using the Spectra Optia® device. Human Mregs can also be generated from leukapheresates collected with alternative devices or from whole blood samples. PBMC from leukapheresis products were further purified by Ficoll-gradient centrifugation. CD14^+ monocytes were isolated from Ficoll-separated, washed PBMC by positive magnetic bead selection using research-grade CD14 microbeads (Miltenyi Biotec, GmbH) in accordance with the manufacturer's instructions. The preparation of isolated monocytes was quality-controlled for viability and purity of CD14^+ cells and contamination with CD3^+ T cells by flow cytometry. Isolated monocytes were resuspended in Mreg culture medium at a density of 7.5×10^5 viable monocytes/ml then plated in Cell+T75 flasks (Sarstedt) at 2×10^5 viable monocytes/cm^2 in a total volume of 20 ml medium. […]

Foxp3+CD25+ iTreg cells [2] = assay: Mreg-induced iTreg assay: Mreg co-culture with allogeneic CD3+ T cells in 96 well plates; type: cell-based; settings: recombinant human IFN-γ 0-100 ng/ml during co-culture; n=8 donors; p<0.0001; FIG. 6
Method: as §1

Molecule	Mreg-mediated iTreg generation (Foxp3+CD25+ iTreg cells) (Foxp3+CD25+ iTreg cells [1])	iTreg generation versus IFN-γ concentration in the co-culture phase (linear regression) (Foxp3+CD25+ iTreg cells [2])
C=CC[C@@H]1/C=C(\C)C[C@H](C)C[C@H](OC)[C@H]2O[C@@](O)(C(=O)C(=O)N3CCCC[C@H]3C(=O)O[C@H](/C(C)=C/[C@@H]3CC[C@@H](O)[C@H](OC)C3)[C@H](C)[C@@H](O)CC1=O)[C@H](C)C[C@@H]2OC [tacrolimus]	inhibited the formation of Foxp3+CD25+ iTreg cells in a dose-dependent manner; also recorded: potently suppressed iTreg generation in a dose-dependent manner	–
B1	–	significant dose-dependent relationship
